Results as given in US20250281497A1, “FUSED AMINO PYRIMIDINE COMPOUNDS FOR TREATMENT OF SEIZURE DISORDERS” (Ovid Therapeutics Inc., priority 2024, published 2025).

Assays:
[1] = tested on: KA induced SE; assay: Kainic acid (KA) induced SE, EEG recording, pretreatment; assay type: in vivo, mice; conditions: mice pretreated with vehicle; DZ 10 mg/kg IP 2h after KA; pre 4.2±2.4×10^−6
Description: This model was chosen due to the similarities with patients undergoing SE, as KA-induced seizures become refractory to benzodiazepines (BDZs) within minutes (Betjemann and Lowenstein, Lancet Neurol 14, 615-624 (2015); Crawshaw and Cock, (2020a) [Seizure: Eur. J. Epilep. 75 (2020) 145-152] Seizure 80, 282; Lee et at, 2022, supra; Reddy and Kuruba, Int J Mol Sci 14, 18284-18318 (2013)).
(§1) EEG recordings and analysis. WT C57Bl/6J adult male mice (12 weeks) were anesthetized with isofluorane and implanted with EEG/EMG electrodes and allowed to recover for 7 days prior to experimentation. […] 2h following KA administration mice were injected with a saturating concentration of diazepam (DZ) 10 mg/kg (IP) and recordings were extended for a further 60 min. […] LabChart 8 software was used for data analysis. Epileptiform activity was identified by changes in the amplitude of electrographic activity characterized by consistent changes in the power of the Fast Fourier transform (FFT) of the EEG and abnormal activity characterized by periods of rhythmic spiking lasting longer than 30s (Moore et al., 2017, supra; Silayeva et al., 2015, supra; Sivakumaran et al., J. Neurosci. 35, 8291-8296 (2015)).
To provide quantitative insights on the effects of KA, raw EEG recordings were subject to Fast-Fourier transformation (8K FFT size, Hann (cosine-bell), 87.50% window overlap) for frequencies between 0-100 Hz 2h after KA injection (Lee et at, 2022, supra).
30 or 60 min later mice were injected with KA (20 mg/kg) and 2h later with DZ as detailed above.

[2] = tested on: KA induced SE; assay: KA induced ongoing SE, EEG recording, treatment 2h after KA; assay type: in vivo, mice
Description: as §1
To evaluate the potential of KCC2 activators to terminate ongoing SE, the KA model described above was employed. Mice were injected with KA (20 mg/Kg; IP). […] Spectral data were then subjected to FFT and the total EEG power between 1-100 Hz of the 2h following KA treatment (pre-drug) and 30 min following their injection (post-drug) were compared (FIG. 6B). In mice treated with DZ alone variable effects were observed, from large increases to modest reductions in EEG power, but these effects were not significant (FIG. 6C; pre=1.1±0.2×10^−6, post=4.4±7.4×10^−7 μV^2, p=0.214, n=13-14 mice). […] The latency of the treatments to modify EEG power was examined by measuring the time taken for this parameter to be reduced to 50% (FIG. 6E). […] Finally in mice treated with DZ alone 62% were insensitive to the effects of this agent on EEG power.

Q: For `CN1C(=O)CN=C(c2ccccc2)c2cc(Cl)ccc21` [DZ, diazepam], which “total EEG power post DZ” value [1] is on record?
A: Its value is 2.9±2.7×10^−6 μV^2.

Q: What about the “total EEG power post-drug” value ([2]; 30 min after injection, given 2h after KA, DZ 10 mg/kg, Compound A 50 mg/Kg IP) of the same compound?
A: Its value is 4.4±7.4×10^−7 μV^2.

Q: And the “mice insensitive to DZ effects on EEG power” value ([2]; treatment 2h after KA)?
A: The value was 62%.
